From ChEMBL document CHEMBL3804786, “Novel 1,3-thiazolidin-4-one derivatives as promising anti-Candida agents endowed with anti-oxidant and chelating properties” (Eur J Med Chem, 2016)
≈ marks a conversion by molar mass, not a printed value.

How the values were obtained:
Staphylococcus aureus = experiment: Antibacterial activity against Staphylococcus aureus clinical isolate after 18 to 22 hrs by broth microdilution method; type: functional
Pichia kudriavzevii = experiment: Antifungal activity against Candida krusei clinical isolate after 24 hrs by broth microdilution method; type: functional
Escherichia coli = experiment: Antibacterial activity against Escherichia coli after clinical isolate 18 to 22 hrs by broth microdilution method; type: functional
Nakaseomyces glabratus = experiment: Antifungal activity against Candida glabrata clinical isolate after 24 hrs by broth microdilution method; type: functional
Staphylococcus warneri = experiment: Antibacterial activity against Staphylococcus warneri clinical isolate after 18 to 22 hrs by broth microdilution method; type: functional
Candida tropicalis = experiment: Antifungal activity against Candida tropicalis clinical isolate after 24 hrs by broth microdilution method; type: functional
Enterococcus faecalis = experiment: Antibacterial activity against Streptococcus faecalis clinical isolate after 18 to 22 hrs by broth microdilution method; type: functional
[1] = tested on: Streptococcus sp. (viridans group); experiment: Antibacterial activity against Streptococcus alpha-hemolyticus clinical isolate after 18 to 22 hrs by broth microdilution method
Klebsiella oxytoca = experiment: Antibacterial activity against Klebsiella oxytoca clinical isolate after 18 to 22 hrs by broth microdilution method; type: functional
Candida albicans = experiment: Antifungal activity against Candida albicans clinical isolate after 24 hrs by broth microdilution method; type: functional
Proteus mirabilis = experiment: Antibacterial activity against Proteus mirabilis clinical isolate after 18 to 22 hrs by broth microdilution method; type: functional
Enterobacter sp. = experiment: Antibacterial activity against Enterobacter spp. clinical isolate after 18 to 22 hrs by broth microdilution method; type: functional
[Candida] sake = Antifungal activity against Candida sake clinical isolate after 24 hrs by broth microdilution method; type: functional; conditions: Fermentozyma sake
Candida parapsilosis = experiment: Antifungal activity against Candida parapsilosis clinical isolate after 24 hrs by broth microdilution method; type: functional; conditions: Lodderomyces parapsilosis
[2] = Cytotoxicity against human Hep2 cells assessed as reduction in cell viability after 24 hrs by trypan blue exclusion assay; type: cell-based, HEp-2
[3] = Cytotoxicity against human Hep2 cells assessed as cell survival at 0.5 ug/ml after 24 hrs by trypan blue exclusion assay; type: cell-based, HEp-2; conditions: read-out: Survival
[4] = Antioxidant activity of the compound after 30 mins by CUPRAC method; type: physicochemical
[5] = Antioxidant activity of the compound after 90 mins by phosphomolybdenum assay; type: physicochemical
[6] = Antioxidant activity assessed as DPPH radical scavenging activity after 30 mins under dark conditions; type: physicochemical
[7] = Cytotoxicity against human Hep2 cells assessed as cell survival at 5 ug/ml after 24 hrs by trypan blue exclusion assay; type: cell-based, HEp-2; conditions: read-out: Survival
[8] = Cytotoxicity against human Hep2 cells assessed as cell survival at 10 ug/ml after 24 hrs by trypan blue exclusion assay; type: cell-based, HEp-2; conditions: read-out: Survival
[9] = Antioxidant activity of the compound after 30 mins by FRAP assay; type: physicochemical
[10] = Cytotoxicity against human Hep2 cells assessed as cell survival at 0.05 ug/ml after 24 hrs by trypan blue exclusion assay; type: cell-based, HEp-2; conditions: read-out: Survival
[11] = Cytotoxicity against human Hep2 cells assessed as cell survival at 50 ug/ml after 24 hrs by trypan blue exclusion assay; type: cell-based, HEp-2; conditions: read-out: Survival
[12] = Metal chelating activity of the compound assessed as ferrous ion complex formation after 10 mins; type: physicochemical
[13] = Antioxidant activity assessed as ABTS radical scavenging activity after 30 mins under dark conditions; type: physicochemical

| Compound | MIC (Staphylococcus aureus) [µg/mL] | MIC (Pichia kudriavzevii) [µg/mL] | MIC (Escherichia coli) [µg/mL] | MIC (Nakaseomyces glabratus) [µg/mL] | MIC (Staphylococcus warneri) [µg/mL] | MIC (Candida tropicalis) [µg/mL] | MIC (Enterococcus faecalis) [µg/mL] | MIC [1] [µg/mL] | MIC (Klebsiella oxytoca) [µg/mL] | MIC (Candida albicans) [µg/mL] | MIC (Proteus mirabilis) [µg/mL] | MIC (Enterobacter sp.) [µg/mL] | MIC ([Candida] sake) [µg/mL] | MIC (Candida parapsilosis) [µg/mL] | EC50 [4] [mM] | EC50 [5] [mM] | IC50 [6] [mM] | EC50 [9] [mM] | IC50 [12] [mM] | IC50 [13] [mM] | further results |
| --- | --- | --- | --- | --- | --- | --- | --- | --- | --- | --- | --- | --- | --- | --- | --- | --- | --- | --- | --- | --- | --- |
| C/C(=N/N=C1\SCC(=O)N1Cc1ccc(Cl)cc1)c1cccs1 | > 256 | 8 (≈ 22 µM) | > 256 | 2 (≈ 5.5 µM) | > 256 | 8 (≈ 22 µM) | > 256 | > 256 | > 256 | 4 (≈ 11 µM) | > 256 | > 256 | 8 (≈ 22 µM) | 4 (≈ 11 µM) | – | – | – | – | – | – | – |
| C/C(=N\N=C1/SCC(=O)N1Cc1cccc(Cl)c1)c1ccccn1 | > 256 | 4 (≈ 11.1 µM) | > 256 | 2 (≈ 5.57 µM) | > 256 | 2 (≈ 5.57 µM) | > 256 | > 256 | > 256 | 2 (≈ 5.57 µM) | > 256 | > 256 | 16 (≈ 44.6 µM) | 2 (≈ 5.57 µM) | 1.4 | 2.04 | > 5 | 4.93 | 2.76 | 26.8 | CC50 at 24 h [2]: 21 µg/mL (≈ 58.5 µM); viability at 24 h, 0.5 ug/ml [3]: 87.5%; viability at 24 h, 5 ug/ml [7]: 85%; viability at 24 h, 10 ug/ml [8]: 69%; viability at 24 h, 0.05 ug/ml [10]: 94%; viability at 24 h, 50 ug/ml [11]: 0% |
| C/C(=N/N=C1\SCC(=O)N1Cc1ccc(Cl)cc1)c1ccccn1 | > 256 | 8 (≈ 22.3 µM) | > 256 | 4 (≈ 11.1 µM) | > 256 | 8 (≈ 22.3 µM) | > 256 | > 256 | > 256 | 8 (≈ 22.3 µM) | > 256 | > 256 | 8 (≈ 22.3 µM) | 4 (≈ 11.1 µM) | – | – | – | – | – | – | – |
| C/C(=N\N=C1/SCC(=O)N1Cc1ccccc1F)c1cccs1 | > 256 | 4 (≈ 11.5 µM) | > 256 | 4 (≈ 11.5 µM) | > 256 | 2 (≈ 5.76 µM) | > 256 | > 256 | > 256 | 2 (≈ 5.76 µM) | > 256 | > 256 | 2 (≈ 5.76 µM) | 4 (≈ 11.5 µM) | 2.4 | 1.26 | > 5 | 2.13 | 3.84 | 15.7 | CC50 at 24 h [2]: 15 µg/mL (≈ 43.2 µM); viability at 24 h, 0.5 ug/ml [3]: 80%; viability at 24 h, 5 ug/ml [7]: 62%; viability at 24 h, 10 ug/ml [8]: 41%; viability at 24 h, 0.05 ug/ml [10]: 91%; viability at 24 h, 50 ug/ml [11]: 0% |
| C/C(=N/N=C1\SCC(=O)N1Cc1ccc(F)cc1)c1cccs1 | > 256 | 2 (≈ 5.76 µM) | > 256 | 2 (≈ 5.76 µM) | > 256 | 2 (≈ 5.76 µM) | > 256 | > 256 | > 256 | 2 (≈ 5.76 µM) | > 256 | > 256 | 8 (≈ 23 µM) | 4 (≈ 11.5 µM) | 1.85 | 1.37 | > 5 | 2.02 | 3.9 | 21.5 | CC50 at 24 h [2]: 15 µg/mL (≈ 43.2 µM); viability at 24 h, 0.5 ug/ml [3]: 76%; viability at 24 h, 5 ug/ml [7]: 68%; viability at 24 h, 10 ug/ml [8]: 52%; viability at 24 h, 0.05 ug/ml [10]: 83%; viability at 24 h, 50 ug/ml [11]: 0% |
| C/C(=N\N=C1/SCC(=O)N1Cc1cccc(Cl)c1)c1cccs1 | > 256 | 2 (≈ 5.5 µM) | > 256 | 2 (≈ 5.5 µM) | > 256 | 2 (≈ 5.5 µM) | > 256 | > 256 | > 256 | 2 (≈ 5.5 µM) | > 256 | > 256 | 2 (≈ 5.5 µM) | 2 (≈ 5.5 µM) | 1.59 | 1.16 | > 5 | 2.32 | 1.64 | 20.3 | CC50 at 24 h [2]: 21 µg/mL (≈ 57.7 µM); viability at 24 h, 0.5 ug/ml [3]: 89%; viability at 24 h, 5 ug/ml [7]: 82%; viability at 24 h, 10 ug/ml [8]: 63%; viability at 24 h, 0.05 ug/ml [10]: 94%; viability at 24 h, 50 ug/ml [11]: 0% |
| Nc1ccc(CN2C(=O)CS/C2=N\N=C2CCCC2)cc1 | > 256 | 16 (≈ 52.9 µM) | > 256 | 16 (≈ 52.9 µM) | > 256 | 32 (≈ 106 µM) | > 256 | > 256 | > 256 | 2 (≈ 6.61 µM) | > 256 | > 256 | 256 (≈ 847 µM) | 64 (≈ 212 µM) | – | – | – | – | – | – | – |
| CC(C)=N/N=C1\SCC(=O)N1Cc1ccc(N)cc1 | > 256 | 2 (≈ 7.24 µM) | > 256 | 1 (≈ 3.62 µM) | > 256 | 32 (≈ 116 µM) | > 256 | > 256 | > 256 | 4 (≈ 14.5 µM) | > 256 | > 256 | 4 (≈ 14.5 µM) | 2 (≈ 7.24 µM) | 1.77 | 1.2 | > 5 | 2.76 | > 5 | 2.04 | – |
